Peptide text beside a SMILES is read from it.
What was measured:
sweetness = tested on: sweetness; set-up: method as in Schiffman et al., 1995; conditions: compared to 5 % sucrose; ref Schiffman et al., 1995; cited from earlier work
[1] = tested on: perceived sweet intensity (panelists); assay: Sensory time-intensity (TI) measurement of sweetness by a trained panel; assay type: in vivo, human; conditions: for Emax of max. intensity (sensory): scale 0-100, top < 100; for sweetener concentration up to which lactisole effectively inhibited the sweetness: time-intensity curves; for EC50: Homo sapiens, asymmetric five parameter curve fit, read-out: EC50 of max. intensity (sensory); for lingering: time point at which < 50 % of maximum sweetness was reached / onset (time of first maximum intensity): at sweet intensity saturation level: 50 mM cyclamate, 0.5 mM NHDC, 5.0 mM acesulfame K, 5.0 mM aspartame, without lactisole; for mode of inhibition by lactisole (shift of dose-response curve), sensory experiments: combination with 0.46 and 0.92 mM lactisole
Excerpt: All panelists gave their written informed consent for participating in the panel and had to complete a sensory training. […] On a last training day, the evaluation on unstructured scales and the time-dependent evaluation on the computer were trained. All panelists reported to be in good general health condition, and not being under medication or pregnant. At least one hour before every training or tasting, panelists were instructed not to smoke and not to consume intense tasting food or beverage (e.g. coffee, chili, garlic, chewing gum) and to avoid in general strong hunger or fullness as well as strong odors or perfume on test days.
Every test solution was assessed randomly at two different test days with at least 8 panelists participating per replicate. The panelists were free to choose to participate at the different test days. A maximum of five test compounds were assessed in one session. All samples were coded with three-digit random code and presented to the panelists in randomized order. On each test day, panelists were presented five sweet solutions with 0, 25, 50, 100 and 200 g/L sucrose as a scale training for the ratings from “not at all” to “very intensive” sweetness. […] The three minutes of evaluation were chosen to capture as much of the lingering as possible without wearing out the panelists during the evaluation. A total of 350 measuring time points was recorded within the pre-set time frame, especially to see differences in the first seconds of evaluation, which are important for the onset. The panelists were asked to take the sample (20 mL) into their mouth, while starting the timer and simultaneously the evaluation of sweet intensity over the time, and to spit out the sample after ten seconds while continuing the evaluation of the sweetness intensity until the end of the three minutes.
For comparison of the time-dependent properties, the following descriptors were used: the maximum intensity at the first 30 sec of evaluation as “max. intensity”, the time-point of the first maximum intensity as “onset” in sec, […], and the area under the curve from the time-intensity plots as “AUC” as a marker for the overall intensity and duration.
All sensory experiments were conducted at the Christian Doppler Laboratory for Taste Research at the Institute for Physiological Chemistry, University of Vienna, Austria, at room temperature (21 – 23 °C). • Calcium mobilization assay
The statistical analysis and graphical representation were performed with GraphPad Prism 9.0 for sensory results and with SigmaPlot 14.0 for cell experiments. To evaluate the sensory dose–response effects of ascending sweetener concentration w/o lactisole, an asymmetrical five-parameter curve (Richard́s five-parameter dose–response curve) was fitted. The data are presented as means ± SEM from at least 16 single evaluations. Statistical significance between the different test compounds and concentration-dependent effects was assessed by two-way ANOVAs with Tukey post hoc test using Graph Pad Prism. The normal distribution of the data sets was checked by evaluation of the kurtosis (between −7 to + 7) and the skewness (between −3 to + 3). Equal variance was tested using Levenés test. In case the assumptions of a normal distribution and equal variance were not met, the non-parametric ANOVA on ranks (Kruskal-Wallis Test) with Dunn's post-hoc test without the calculation of interaction was applied. A Pearson product moment correlation was conducted to investigate relationships between sensory results and cell responses of the tested sweeteners.

SMILES | sensory sweetness factor (sweetness) | Hillslope of max. intensity dose-response (sensory) ([1]; 0 mM lactisole) | Emax of max. intensity (sensory) ([1]; 0 mM lactisole) | sweetener concentration up to which lactisole effectively inhibited the sweetness ([1]; 0.46 mM lactisole) | sweetener concentration up to which lactisole effectively inhibited the sweetness ([1]; 0.92 mM lactisole) | EC50 ([1]; 0 mM lactisole) [µM] | lingering: time point at which < 50 % of maximum sweetness was reached [1] [s] | onset (time of first maximum intensity) [1] [s] | mode of inhibition by lactisole (shift of dose-response curve), sensory experiments [1] | Hillslope of max. intensity dose-response (sensory) ([1]; with 0.46 mM lactisole) | Emax of max. intensity (sensory) ([1]; with 0.46 mM lactisole) | Hillslope of max. intensity dose-response (sensory) ([1]; with 0.92 mM lactisole) | Emax of max. intensity (sensory) ([1]; with 0.92 mM lactisole)
COc1ccc(CCC(=O)c2c(O)cc(O[C@@H]3O[C@H](CO)[C@@H](O)[C@H](O)[C@H]3O[C@@H]3O[C@@H](C)[C@H](O)[C@@H](O)[C@H]3O)cc2O)cc1O [NHDC, neohesperidin dihydrochalcone] | approximately 900 | 0.94 | 97.73 | up to 0.2 mM | up to 0.5 mM | 56 | 100.7 | 5.1 | competitive inhibition | 0.89 | 100.00 | 0.82 | 100.00
CC1=CC(=O)NS(=O)(=O)O1 [acesulfame K] | – | 1.43 | unstable | up to 1 mM | up to 1 mM | 920 | 44.7 | 4.6 | – | 2.75 | 71.83 | 1.45 | 73.60
COC(=O)[C@H](Cc1ccccc1)NC(=O)[C@@H](N)CC(=O)O [aspartame] (H-Asp-Phe-OMe) | – | 2.56 | 97.05 | ≤ 1.0 mM | up to 2.0 mM | 1090 | 71.4 | 5.7 | – | 1.28 | 99.22 | 1.32 | 100.00
O=S(=O)(O)NC1CCCCC1 [cyclamate] | around 30 | 2.60 | 96.11 | up to 5.0 mM | ≤ 10.0 mM | 8720 | 60.1 | 5.1 | competitive inhibition | 2.18 | 92.37 | 2.10 | unstable

— publication PMC9532755, “Impact of lactisole on the time-intensity profile of selected sweeteners in dependence of the binding site” (Food Chemistry: X, 2022)
